From ChEMBL document CHEMBL1201862, “PubChem BioAssay data set” (2004)
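Following 48 hours of exposure in 96-well plates, responses at five concentrations were used to interpolate endpoints linearly. At the GI50, growth is halved.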 Active and inactive are the calls of the source. Rule as the data show it: active = GI50 up to about 1.1 µM and inactive = higher.

How the values were obtained:
Experiment in all cases: NCI tumour cell line growth inhibition, 48 h
[1] = tested on: 786-0
[2] = tested on: A498
[3] = tested on: A549
[4] = tested on: DU-145
[5] = tested on: HCT-15
[6] = tested on: HL-60
[7] = tested on: K562
[8] = tested on: LOX IMVI
[9] = tested on: MDA-N
[10] = tested on: MOLT-4
[11] = tested on: NCI-H522
[12] = tested on: NCI/ADR-RES
[13] = tested on: OVCAR-3
[14] = tested on: RPMI-8226
[15] = tested on: SF-268
[16] = tested on: SF-295
[17] = tested on: SF-539
[18] = tested on: SR
[19] = tested on: TK-10
[20] = tested on: UACC-62

| SMILES | GI50 [1] | GI50 [2] | GI50 [3] | GI50 [4] | GI50 [5] [µM] | GI50 [6] | GI50 [7] | GI50 [8] | GI50 [9] | GI50 [10] | GI50 [11] | GI50 [12] | GI50 [13] | GI50 [14] | GI50 [15] | GI50 [16] | GI50 [17] | GI50 [18] | GI50 [19] | GI50 [20] |
| --- | --- | --- | --- | --- | --- | --- | --- | --- | --- | --- | --- | --- | --- | --- | --- | --- | --- | --- | --- | --- |
| CC1(C)OC(C(=O)Nc2cc3c4ccccc4ccc3c3ccccc23)C(C(=O)N2CCCCC2)O1 (stereo not given) | 1.77 µM (inactive) | > 23.9 µM (inactive) | 1.04 µM (active) | 5.97 µM (inactive) | 0.419 | 1.41 µM (inactive) | 0.619 µM (active) | 0.344 µM (active) | 5.94 µM (inactive) | 0.574 µM (active) | 0.863 µM (active) | 2.08 µM (inactive) | 2.29 µM (inactive) | 0.592 µM (active) | 2.43 µM (inactive) | 1.32 µM (inactive) | 0.587 µM (active) | 0.0964 µM (active) | > 22.6 µM (inactive) | 1.17 µM (inactive) |
| C(CCc1nnc2c(n1)CCCC2)Cc1nnc2c(n1)CCCC2 | > 100 µM (inactive) | > 100 µM (inactive) | > 100 µM (inactive) | > 100 µM (inactive) | > 100 | > 100 µM (inactive) | > 100 µM (inactive) | > 100 µM (inactive) | 88.3 µM (inactive) | > 100 µM (inactive) | > 100 µM (inactive) | > 100 µM (inactive) | > 100 µM (inactive) | > 100 µM (inactive) | > 100 µM (inactive) | > 100 µM (inactive) | > 100 µM (inactive) | 88.7 µM (inactive) | > 100 µM (inactive) | > 100 µM (inactive) |
| CC(=O)NNC(=S)N/C=C1/C(=O)Oc2ccccc2C1=O | > 100 µM (inactive) | > 100 µM (inactive) | > 100 µM (inactive) | > 100 µM (inactive) | > 100 | > 100 µM (inactive) | > 100 µM (inactive) | > 100 µM (inactive) | > 100 µM (inactive) | > 100 µM (inactive) | > 100 µM (inactive) | > 100 µM (inactive) | > 100 µM (inactive) | > 100 µM (inactive) | > 100 µM (inactive) | > 100 µM (inactive) | > 100 µM (inactive) | > 100 µM (inactive) | > 100 µM (inactive) | 51.6 µM (inactive) |
| CC(C)(C)c1ccc(S(=O)(=O)N2C(c3cccc(C4CC[C@@H](C(=O)O)N4S(=O)(=O)c4ccc(C(C)(C)C)cc4)c3)CC[C@H]2C(=O)O)cc1 (stereo not given in full) | 49.4 µM (inactive) | > 100 µM (inactive) | 66.7 µM (inactive) | 75.3 µM (inactive) | 43.2 | 43.5 µM (inactive) | 37.5 µM (inactive) | 79.4 µM (inactive) | 55.2 µM (inactive) | 33 µM (inactive) | 38.7 µM (inactive) | > 100 µM (inactive) | 28 µM (inactive) | 34.5 µM (inactive) | 77.8 µM (inactive) | 45.8 µM (inactive) | 87.3 µM (inactive) | 33.1 µM (inactive) | 65.5 µM (inactive) | 44.9 µM (inactive) |
| [N-]=[N+]=Nc1c([N+](=O)[O-])c(Cl)nc2ccccc12 | 0.541 µM (active) | 13.7 µM (inactive) | 16.8 µM (inactive) | 2.13 µM (inactive) | 1.83 | 0.119 µM (active) | 0.463 µM (active) | 1.59 µM (inactive) | 2.38 µM (inactive) | 0.587 µM (active) | 0.293 µM (active) | 2.56 µM (inactive) | 1.41 µM (inactive) | 1.77 µM (inactive) | 3.47 µM (inactive) | 19.4 µM (inactive) | 3.92 µM (inactive) | 0.604 µM (active) | 2.25 µM (inactive) | 4.37 µM (inactive) |
| O=C(C=P(c1ccccc1)(c1ccccc1)c1ccccc1)c1cccc(-c2cccc([N+](=O)[O-])c2)c1 | 4.24 µM (inactive) | 1.83 µM (inactive) | 3.62 µM (inactive) | 6.78 µM (inactive) | 3.16 | 1.76 µM (inactive) | 2.99 µM (inactive) | 2.56 µM (inactive) | 2.49 µM (inactive) | 1.68 µM (inactive) | 1.86 µM (inactive) | 3.42 µM (inactive) | 3.03 µM (inactive) | 1.98 µM (inactive) | 3.93 µM (inactive) | 3.18 µM (inactive) | 4.56 µM (inactive) | 2.58 µM (inactive) | 3.18 µM (inactive) | 1.72 µM (inactive) |
| C=C(CCOC)CCC1CCCCC(=C)[C@H]1OC(C)=O (stereo not given in full) | > 100 µM (inactive) | > 100 µM (inactive) | > 100 µM (inactive) | > 100 µM (inactive) | > 100 | 50.7 µM (inactive) | > 100 µM (inactive) | > 100 µM (inactive) | > 100 µM (inactive) | 59.7 µM (inactive) | 41.8 µM (inactive) | 78.3 µM (inactive) | > 100 µM (inactive) | 51.1 µM (inactive) | > 100 µM (inactive) | > 100 µM (inactive) | > 100 µM (inactive) | 52.5 µM (inactive) | > 100 µM (inactive) | > 100 µM (inactive) |
